The text below walks through data of patent publication US9738660B2, “Selective inhibitors for protein kinases and pharmaceutical composition and use thereof” (National Chiao Tung University, priority 2014, dated 2017).

Holding throughout (assay): Kinase Profiler, residual kinase activity
Assay type in all cases: biochemical

One assay deals with CDK2 (Homo sapiens, UniProt P24941). To be noted: CDK2; inhibitor at 500 nM; read-out: percentage of the remaining kinase activity.
For another assay, the target named is LCK (Homo sapiens, UniProt P06239). Particulars: LCK; inhibitor at 500 nM; read-out: percentage of the remaining kinase activity.
The target in a further assay is T1, MAPKAPK2 (Homo sapiens, UniProt P49137).
T1 construct: purchased Research Biology Corp. (http://www.reactionbiology.com)
T1 sequence (P49137 whole entry): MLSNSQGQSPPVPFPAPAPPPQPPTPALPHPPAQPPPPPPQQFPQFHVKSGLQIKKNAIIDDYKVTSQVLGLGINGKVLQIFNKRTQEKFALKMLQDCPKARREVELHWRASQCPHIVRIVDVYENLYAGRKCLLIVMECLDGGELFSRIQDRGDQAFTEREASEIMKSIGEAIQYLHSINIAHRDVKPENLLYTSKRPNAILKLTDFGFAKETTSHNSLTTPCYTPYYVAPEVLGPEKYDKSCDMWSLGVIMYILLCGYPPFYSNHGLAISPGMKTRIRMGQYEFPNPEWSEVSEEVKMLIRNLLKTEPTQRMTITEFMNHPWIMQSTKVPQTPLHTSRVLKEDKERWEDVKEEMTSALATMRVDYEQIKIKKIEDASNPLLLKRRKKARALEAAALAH
To be noted: MAPKAPK2; inhibitor at 500 nM; read-out: percentage of the remaining kinase activity.

In the next assay the target is T2, STK11 (Homo sapiens, UniProt Q15831).
T2 sequence (Q15831 1-433): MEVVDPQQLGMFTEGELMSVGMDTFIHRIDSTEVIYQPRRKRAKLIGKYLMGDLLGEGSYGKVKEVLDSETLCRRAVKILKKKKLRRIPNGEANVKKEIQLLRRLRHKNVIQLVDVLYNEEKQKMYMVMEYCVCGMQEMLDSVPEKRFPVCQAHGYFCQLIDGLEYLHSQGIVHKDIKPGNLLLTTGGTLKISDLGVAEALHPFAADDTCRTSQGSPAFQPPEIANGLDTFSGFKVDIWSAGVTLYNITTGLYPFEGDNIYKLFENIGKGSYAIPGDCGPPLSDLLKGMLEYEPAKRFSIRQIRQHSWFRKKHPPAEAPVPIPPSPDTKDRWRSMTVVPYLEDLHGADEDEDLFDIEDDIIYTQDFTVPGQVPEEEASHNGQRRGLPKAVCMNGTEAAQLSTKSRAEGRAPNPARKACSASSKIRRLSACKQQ
T2 sequence (Q7RTN6 1-431 partner): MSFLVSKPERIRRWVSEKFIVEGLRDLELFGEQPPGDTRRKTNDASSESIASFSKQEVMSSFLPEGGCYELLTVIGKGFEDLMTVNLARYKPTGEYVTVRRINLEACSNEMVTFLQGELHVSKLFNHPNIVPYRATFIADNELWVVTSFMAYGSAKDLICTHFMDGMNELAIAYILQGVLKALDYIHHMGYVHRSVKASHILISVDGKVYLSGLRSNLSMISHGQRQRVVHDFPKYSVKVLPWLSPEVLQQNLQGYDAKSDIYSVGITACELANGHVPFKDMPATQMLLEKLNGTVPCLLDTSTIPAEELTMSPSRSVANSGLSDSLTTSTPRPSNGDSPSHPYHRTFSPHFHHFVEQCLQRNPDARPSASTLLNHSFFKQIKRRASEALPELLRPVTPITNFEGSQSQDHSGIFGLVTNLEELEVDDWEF
T2 sequence (Q9Y376 1-341 partner): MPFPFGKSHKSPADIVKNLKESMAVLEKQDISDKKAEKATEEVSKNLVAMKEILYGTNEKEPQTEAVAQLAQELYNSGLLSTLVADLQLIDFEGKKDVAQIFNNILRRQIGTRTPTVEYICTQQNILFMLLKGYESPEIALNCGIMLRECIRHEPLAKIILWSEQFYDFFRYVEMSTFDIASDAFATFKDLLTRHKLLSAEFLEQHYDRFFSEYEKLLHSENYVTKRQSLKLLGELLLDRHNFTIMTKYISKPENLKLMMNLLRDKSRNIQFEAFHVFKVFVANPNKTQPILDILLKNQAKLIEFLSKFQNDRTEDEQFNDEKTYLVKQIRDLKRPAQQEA
Particulars: STK11; inhibitor at 500 nM; read-out: percentage of the remaining kinase activity. The text has this:
(§1) Kinase Profiler services provided by […]. (http://www.reactionbiology.com) were used to analyze the data of the 9 type-S protein kinase inhibitors against the 40 types of protein kinases.

Another assay has as its target T3, EGFR (Homo sapiens, UniProt P00533).
T3 construct: purchased Research Biology Corp. (http://www.reactionbiology.com)
To be noted: EGFR; inhibitor at 500 nM; read-out: percentage of the remaining kinase activity.
Source text: as §1

For a further assay, the target named is AKT1 (Homo sapiens, UniProt P31749). Particulars: read-out: percentage of the remaining kinase activity.
Sequence of AKT1 (P31749 whole entry): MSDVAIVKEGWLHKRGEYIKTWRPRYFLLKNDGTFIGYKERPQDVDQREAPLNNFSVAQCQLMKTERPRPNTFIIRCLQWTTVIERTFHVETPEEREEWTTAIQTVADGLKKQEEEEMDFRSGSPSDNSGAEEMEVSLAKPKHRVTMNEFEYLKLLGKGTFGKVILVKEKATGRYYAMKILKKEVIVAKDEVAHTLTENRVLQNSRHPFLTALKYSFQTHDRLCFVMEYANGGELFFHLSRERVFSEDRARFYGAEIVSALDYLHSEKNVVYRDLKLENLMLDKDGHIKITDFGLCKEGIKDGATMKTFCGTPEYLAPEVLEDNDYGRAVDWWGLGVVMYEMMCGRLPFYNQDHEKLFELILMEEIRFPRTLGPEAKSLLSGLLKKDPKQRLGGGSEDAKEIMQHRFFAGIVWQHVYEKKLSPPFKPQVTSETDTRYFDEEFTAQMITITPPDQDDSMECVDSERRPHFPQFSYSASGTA
Source text: as §1

For another assay, the target named is DYRK1A (Homo sapiens, UniProt Q13627). Particulars: DYRK1A; inhibitor at 500 nM; read-out: percentage of the remaining kinase activity.
Source text: as §1

For another assay, the target named is T4, FGFR2 (Homo sapiens, UniProt P21802).
T4 construct: purchased Research Biology Corp. (http://www.reactionbiology.com)
T4 sequence (P21802 22-821): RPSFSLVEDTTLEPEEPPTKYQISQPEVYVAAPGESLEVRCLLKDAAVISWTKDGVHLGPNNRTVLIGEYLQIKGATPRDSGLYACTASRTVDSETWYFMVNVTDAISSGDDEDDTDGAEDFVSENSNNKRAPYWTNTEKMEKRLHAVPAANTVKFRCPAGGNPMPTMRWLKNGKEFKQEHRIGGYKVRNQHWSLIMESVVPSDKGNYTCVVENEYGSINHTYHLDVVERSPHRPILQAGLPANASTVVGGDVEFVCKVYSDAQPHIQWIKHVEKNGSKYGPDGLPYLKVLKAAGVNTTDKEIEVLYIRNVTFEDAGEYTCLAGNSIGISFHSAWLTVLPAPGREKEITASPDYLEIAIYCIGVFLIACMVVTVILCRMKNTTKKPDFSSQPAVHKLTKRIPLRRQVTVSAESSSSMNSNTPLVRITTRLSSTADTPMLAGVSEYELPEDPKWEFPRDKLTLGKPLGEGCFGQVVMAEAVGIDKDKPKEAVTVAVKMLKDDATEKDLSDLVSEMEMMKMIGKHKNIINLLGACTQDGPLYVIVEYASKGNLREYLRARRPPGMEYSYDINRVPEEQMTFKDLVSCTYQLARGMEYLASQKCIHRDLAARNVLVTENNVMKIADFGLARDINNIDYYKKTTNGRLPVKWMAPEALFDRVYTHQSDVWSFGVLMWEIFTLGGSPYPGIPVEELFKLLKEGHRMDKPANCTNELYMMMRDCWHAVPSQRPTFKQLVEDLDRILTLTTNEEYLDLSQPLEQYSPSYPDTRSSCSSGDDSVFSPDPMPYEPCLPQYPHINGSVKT
To be noted: for remaining activity at 0.5 µM: FGFR2, inhibitor at 500 nM, read-out: percentage of the remaining kinase activity.
Source text: as §1

The next assay deals with BTK (Homo sapiens, UniProt Q06187). Particulars: BTK; inhibitor at 500 nM; read-out: percentage of the remaining kinase activity.
Sequence of BTK (Q06187 whole entry): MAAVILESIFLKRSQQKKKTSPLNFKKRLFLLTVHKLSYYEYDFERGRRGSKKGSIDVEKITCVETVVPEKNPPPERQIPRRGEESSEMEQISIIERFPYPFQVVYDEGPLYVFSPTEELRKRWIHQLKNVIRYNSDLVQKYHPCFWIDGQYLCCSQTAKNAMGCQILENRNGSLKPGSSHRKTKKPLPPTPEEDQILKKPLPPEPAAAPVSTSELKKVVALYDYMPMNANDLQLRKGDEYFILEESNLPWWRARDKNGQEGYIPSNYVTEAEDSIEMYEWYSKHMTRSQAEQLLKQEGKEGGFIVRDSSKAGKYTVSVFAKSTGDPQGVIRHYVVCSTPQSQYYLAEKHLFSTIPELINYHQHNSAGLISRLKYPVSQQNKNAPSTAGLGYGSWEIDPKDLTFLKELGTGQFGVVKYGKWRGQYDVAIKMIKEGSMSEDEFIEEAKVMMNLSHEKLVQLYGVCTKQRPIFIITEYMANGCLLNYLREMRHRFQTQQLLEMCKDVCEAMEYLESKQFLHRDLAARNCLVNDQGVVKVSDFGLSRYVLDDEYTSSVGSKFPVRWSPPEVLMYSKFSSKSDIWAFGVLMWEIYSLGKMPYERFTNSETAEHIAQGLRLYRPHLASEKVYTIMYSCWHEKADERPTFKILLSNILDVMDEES
Source text: as §1

The next assay concerns the target T5, OXSR1 (Homo sapiens, UniProt O95747).
T5 construct: purchased Research Biology Corp. (http://www.reactionbiology.com)
Particulars: read-out: percentage of the remaining kinase activity.
Source text: as §1

The target in another assay is ALK (Homo sapiens, UniProt Q9UM73). To be noted: read-out: percentage of the remaining kinase activity.
Sequence of ALK (Q9UM73 19-1620): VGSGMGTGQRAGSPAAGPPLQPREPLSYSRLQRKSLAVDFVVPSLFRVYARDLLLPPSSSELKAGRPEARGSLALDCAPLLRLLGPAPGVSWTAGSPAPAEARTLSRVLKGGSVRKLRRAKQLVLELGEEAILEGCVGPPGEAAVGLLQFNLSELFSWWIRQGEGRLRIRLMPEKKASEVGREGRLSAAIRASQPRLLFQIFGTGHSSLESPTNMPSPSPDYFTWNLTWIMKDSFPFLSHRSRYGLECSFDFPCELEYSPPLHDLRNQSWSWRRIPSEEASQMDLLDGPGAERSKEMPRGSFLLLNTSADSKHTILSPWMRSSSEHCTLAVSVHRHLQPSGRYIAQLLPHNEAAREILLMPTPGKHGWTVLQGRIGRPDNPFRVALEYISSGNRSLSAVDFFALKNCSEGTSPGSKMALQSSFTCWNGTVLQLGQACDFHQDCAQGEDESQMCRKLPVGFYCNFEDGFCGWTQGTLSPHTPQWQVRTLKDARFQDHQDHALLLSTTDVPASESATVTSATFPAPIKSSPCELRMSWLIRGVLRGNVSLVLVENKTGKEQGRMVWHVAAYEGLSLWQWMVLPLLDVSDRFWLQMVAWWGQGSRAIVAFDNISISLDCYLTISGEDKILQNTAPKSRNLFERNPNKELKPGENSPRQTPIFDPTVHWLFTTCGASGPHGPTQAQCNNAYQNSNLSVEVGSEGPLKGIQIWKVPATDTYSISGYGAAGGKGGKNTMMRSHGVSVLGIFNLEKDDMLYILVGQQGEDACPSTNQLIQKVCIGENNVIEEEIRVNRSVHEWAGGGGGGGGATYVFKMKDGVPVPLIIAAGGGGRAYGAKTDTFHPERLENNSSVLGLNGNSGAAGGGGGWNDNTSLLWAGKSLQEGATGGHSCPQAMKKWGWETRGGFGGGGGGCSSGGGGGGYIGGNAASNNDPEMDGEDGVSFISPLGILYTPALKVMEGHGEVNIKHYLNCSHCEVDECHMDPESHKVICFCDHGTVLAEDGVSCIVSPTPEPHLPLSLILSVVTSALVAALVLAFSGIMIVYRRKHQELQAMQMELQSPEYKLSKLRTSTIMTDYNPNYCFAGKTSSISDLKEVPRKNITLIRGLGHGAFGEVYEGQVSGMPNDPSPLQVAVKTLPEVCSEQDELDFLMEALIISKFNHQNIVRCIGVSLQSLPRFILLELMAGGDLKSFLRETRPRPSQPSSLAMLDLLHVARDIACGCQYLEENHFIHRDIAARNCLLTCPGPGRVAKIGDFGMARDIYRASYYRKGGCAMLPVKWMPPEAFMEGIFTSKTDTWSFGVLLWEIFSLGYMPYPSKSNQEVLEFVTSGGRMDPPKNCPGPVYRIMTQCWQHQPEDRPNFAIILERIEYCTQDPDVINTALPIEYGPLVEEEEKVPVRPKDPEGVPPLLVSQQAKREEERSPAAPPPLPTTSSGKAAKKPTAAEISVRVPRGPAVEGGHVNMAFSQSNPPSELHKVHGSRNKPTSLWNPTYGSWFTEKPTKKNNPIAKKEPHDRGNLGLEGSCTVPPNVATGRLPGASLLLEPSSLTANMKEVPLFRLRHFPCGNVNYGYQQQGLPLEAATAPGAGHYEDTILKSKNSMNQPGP
Source text: as §1

For another assay, the target named is PIM1 (Homo sapiens, UniProt P11309). To be noted: read-out: percentage of the remaining kinase activity.
Sequence of PIM1 (P11309 whole entry): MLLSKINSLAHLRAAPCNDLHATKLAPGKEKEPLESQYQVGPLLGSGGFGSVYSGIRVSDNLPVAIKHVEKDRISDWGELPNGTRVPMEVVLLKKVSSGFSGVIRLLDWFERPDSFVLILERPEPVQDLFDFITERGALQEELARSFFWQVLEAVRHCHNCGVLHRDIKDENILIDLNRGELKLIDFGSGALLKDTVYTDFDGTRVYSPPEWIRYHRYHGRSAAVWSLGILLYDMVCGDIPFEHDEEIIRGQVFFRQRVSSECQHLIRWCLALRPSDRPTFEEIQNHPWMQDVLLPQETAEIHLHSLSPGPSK
Source text: as §1

In another assay the target is CHEK2 (Homo sapiens, UniProt O96017). Particulars: CHEK2; inhibitor at 500 nM; read-out: percentage of the remaining kinase activity.
Sequence of CHEK2 (O96017 whole entry): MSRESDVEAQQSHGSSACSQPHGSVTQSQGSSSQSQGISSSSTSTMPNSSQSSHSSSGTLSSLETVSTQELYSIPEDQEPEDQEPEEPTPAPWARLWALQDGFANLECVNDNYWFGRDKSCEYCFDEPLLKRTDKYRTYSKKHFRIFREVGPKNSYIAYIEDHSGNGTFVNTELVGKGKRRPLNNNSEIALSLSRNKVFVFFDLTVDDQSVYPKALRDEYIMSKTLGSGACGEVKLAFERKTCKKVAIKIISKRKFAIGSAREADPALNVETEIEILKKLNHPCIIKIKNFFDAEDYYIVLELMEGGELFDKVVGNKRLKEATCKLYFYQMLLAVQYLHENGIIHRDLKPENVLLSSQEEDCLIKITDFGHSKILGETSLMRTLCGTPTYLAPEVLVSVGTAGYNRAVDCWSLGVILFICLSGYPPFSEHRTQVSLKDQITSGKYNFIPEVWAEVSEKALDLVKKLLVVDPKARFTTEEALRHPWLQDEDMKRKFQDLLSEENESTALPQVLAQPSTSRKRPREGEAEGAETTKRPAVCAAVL
For another assay, the target named is FGFR1 (Homo sapiens, UniProt P11362). To be noted: FGFR1; inhibitor at 500 nM; read-out: percentage of the remaining kinase activity.
Another assay has as its target T6, RPS6KB1 (Homo sapiens, UniProt P23443).
T6 construct: purchased Research Biology Corp. (http://www.reactionbiology.com)
To be noted: RPS6KB1; inhibitor at 500 nM; read-out: percentage of the remaining kinase activity.

Read-outs that look alike come from different tables or passages of the source.

For `COC1C(N(C)C(=O)C(N)Cc2c[nH]cn2)CC2OC1(C)n1c3ccccc3c3c4c(c5c6ccccc6n2c5c31)C(=O)NC4` (centres unmarked) [Compound 1], the remaining activity at 0.5 µM on CDK2 was 16.5%; at LCK it was 2.1%; on MAPKAPK2 it was 73.3%; on STK11 it was 88.7%; at EGFR it was 30.5%; on AKT1 (AKT1, inhibitor at 500 nM), 19.6%. In addition, the remaining activity at 0.5 µM was 0.4% on DYRK1A; 9.8% at FGFR2; 13.9% on BTK; 106% on OXSR1 (OXSR1, inhibitor at 500 nM); 3.3% at ALK (ALK, inhibitor at 500 nM); 2.4% on PIM1 (PIM1, inhibitor at 500 nM). Moreover, the remaining activity at 0.5 µM on CHEK2 is 30.3%; on FGFR1 it was 5.1%; at RPS6KB1, 7.9%.
Turning to `COC1C(N(C)C(=O)C(N)Cc2cn(C(=O)OC(C)(C)C)c3ccccc23)CC2OC1(C)n1c3ccccc3c3c4c(c5c6ccccc6n2c5c31)C(=O)NC4` (centres unmarked) [Compound 2], the remaining activity at 0.5 µM is 76.6% on CDK2; 97% on LCK; 106% on MAPKAPK2; 106% at STK11; 110% on EGFR; 97.6% at AKT1 (AKT1, inhibitor at 500 nM). Further, the remaining activity at 0.5 µM is 88.6% on DYRK1A; 88.4% at FGFR2; 90.6% on BTK; 116% at OXSR1 (OXSR1, inhibitor at 500 nM); 85.4% on ALK (ALK, inhibitor at 500 nM); 88.9% at PIM1 (PIM1, inhibitor at 500 nM). Also, the remaining activity at 0.5 µM at CHEK2 amounted to 95.8%; on FGFR1, 101%; at RPS6KB1, 72.4%.
With `COC1C(N(C)C(=O)C(N)Cc2ccc(OC(C)(C)C)cc2)CC2OC1(C)n1c3ccccc3c3c4c(c5c6ccccc6n2c5c31)C(=O)NC4` (centres unmarked) [Compound 4], the remaining activity at 0.5 µM on CDK2 turned out to be 57.5%; on LCK, 68.8%; on MAPKAPK2 it was 108%; on STK11 it was 113%; on EGFR it was 108%; on AKT1 (AKT1, inhibitor at 500 nM) it was 79.6%. Besides, the remaining activity at 0.5 µM on DYRK1A amounted to 17.8%; at FGFR2 it was 43.2%; on BTK, 65.4%; on OXSR1 (OXSR1, inhibitor at 500 nM), 110%; on ALK (ALK, inhibitor at 500 nM) it was 56.7%; on PIM1 (PIM1, inhibitor at 500 nM) it was 44.2%. The remaining activity at 0.5 µM worked out at 80.4% at CHEK2, 53.3% on FGFR1 and 15.2% on RPS6KB1. The “inhibitory effect on FGFR2” value against FGFR2 (in words) is reported as “had an inhibitory effect on FGFR2”.
For the compound `COC1C(N(C)C(=O)C(N)Cc2ccc(O)cc2)CC2OC1(C)n1c3ccccc3c3c4c(c5c6ccccc6n2c5c31)C(=O)NC4` (centres unmarked) [Compound 5], the remaining activity at 0.5 µM worked out at 56.9% at CDK2; 11.5% at LCK; 95.3% on MAPKAPK2; 102% on STK11; 93.1% on EGFR; 66.8% on AKT1 (AKT1, inhibitor at 500 nM). Further, the remaining activity at 0.5 µM at DYRK1A was 0.6%; at FGFR2, 21.7%; at BTK, 37.8%; on OXSR1 (OXSR1, inhibitor at 500 nM) it was 109%; on ALK (ALK, inhibitor at 500 nM) it was 29.1%; on PIM1 (PIM1, inhibitor at 500 nM), 3%. The values for the remaining activity at 0.5 µM on CHEK2, on FGFR1 and at RPS6KB1 were 73.2%, 16.6% and 11.8%, respectively.
As to `COC1C(N(C)C(=O)C(N)CCC(=O)OC(C)(C)C)CC2OC1(C)n1c3ccccc3c3c4c(c5c6ccccc6n2c5c31)C(=O)NC4` (centres unmarked) [Compound 6], the remaining activity at 0.5 µM at CDK2 was determined as 55%; on LCK, 44%; at MAPKAPK2, 105%; on STK11 it was 104%; at EGFR, 108%; at AKT1 (AKT1, inhibitor at 500 nM), 67.5%. The remaining activity at 0.5 µM was 13.8% on DYRK1A; 26.5% on FGFR2; 43.6% on BTK; 111% on OXSR1 (OXSR1, inhibitor at 500 nM); 44.7% on ALK (ALK, inhibitor at 500 nM); 43% at PIM1 (PIM1, inhibitor at 500 nM). For the same compound, the remaining activity at 0.5 µM at CHEK2 is 82.7%; at FGFR1 it was 29.5%; on RPS6KB1 it was 15%.
`COC1C(N(C)C(=O)C(N)CCC(=O)O)CC2OC1(C)n1c3ccccc3c3c4c(c5c6ccccc6n2c5c31)C(=O)NC4` (centres unmarked) [Compound 7]: the remaining activity at 0.5 µM on CDK2 amounted to 19.3%; at LCK, 3%; on MAPKAPK2, 91.8%; on STK11, 79.9%; on EGFR, 82.2%; at AKT1 (AKT1, inhibitor at 500 nM), 31.5%. The remaining activity at 0.5 µM at DYRK1A was 0.6%; at FGFR2, 9.2%; at BTK, 11.9%; on OXSR1 (OXSR1, inhibitor at 500 nM) it was 100%; on ALK (ALK, inhibitor at 500 nM) it was 4.7%; on PIM1 (PIM1, inhibitor at 500 nM) it was 2.5%. The values for the remaining activity at 0.5 µM at CHEK2, at FGFR1 and at RPS6KB1 were 47.2%, 3.2% and 9.2%, respectively.
In the case of `CN[C@@H]1C[C@H]2O[C@@](C)([C@@H]1OC)n1c3ccccc3c3c4c(c5c6ccccc6n2c5c31)C(=O)NC4` [STU, staurosporine, reference compound], the remaining activity at 0.5 µM on AKT1 was 3.8%; at OXSR1, 15.8%; at ALK, -0.3%; at PIM1, 0.6%.
